Data taken from US20130123253A1, “MODULATORS OF CENTRAL NERVOUS SYSTEM NEUROTRANSMITTERS” (HUMAN BIOMOLECULAR RESEARCH INSTITUTE, priority 2004, published 2013).
Like-named read-outs stand apart in the source and are kept apart here.

What was measured:
[1] = system: DAT, SERT or NET; experiment: Binding and reuptake inhibition in HEK cells containing DAT, SERT or NET (overall statement); type: cell-based, human; conditions: for transporter inhibition potency: DAT, SERT, NET binding and reuptake
Procedure: The data cannot be directly compared with Table 1 because the compounds of Table 3 were mixtures of diastereomers and isomers at all centers of chirality.
Transporter Binding Assays. […] Cells were scraped from plates and centrifuged for […] at 30,000×g and the pellet was re-suspended in 0.32 M sucrose with a Polytron at a setting of 1 for 5 sec. […] Membranes were pre-incubated with test compounds for […] before addition of [^125I]RTI-55. […] The incubations were done in the dark and terminated by filtration onto a Whatman GF/C filters using a 96-well Tomtech cell harvester (Tomtech, Orange, Conn.). Scintillation fluid was added to each filter spot and radioactivity remaining on the filter was determined using a Wallace β-plate reader (Wallace Labs, Cranbury, N.J.).

[2] = target: T1, human PDE4D3 (Homo sapiens, UniProt Q08499); experiment: Inhibition of cAMP hydrolysis by recombinant human PDE4D3; type: biochemical
T1 construct: made in house; host or cells: Cos 7 cells (construct and cells a gift from Dr. Conti, Stanford)
T1 sequence (Q08499 1-673 isoform Q08499-2): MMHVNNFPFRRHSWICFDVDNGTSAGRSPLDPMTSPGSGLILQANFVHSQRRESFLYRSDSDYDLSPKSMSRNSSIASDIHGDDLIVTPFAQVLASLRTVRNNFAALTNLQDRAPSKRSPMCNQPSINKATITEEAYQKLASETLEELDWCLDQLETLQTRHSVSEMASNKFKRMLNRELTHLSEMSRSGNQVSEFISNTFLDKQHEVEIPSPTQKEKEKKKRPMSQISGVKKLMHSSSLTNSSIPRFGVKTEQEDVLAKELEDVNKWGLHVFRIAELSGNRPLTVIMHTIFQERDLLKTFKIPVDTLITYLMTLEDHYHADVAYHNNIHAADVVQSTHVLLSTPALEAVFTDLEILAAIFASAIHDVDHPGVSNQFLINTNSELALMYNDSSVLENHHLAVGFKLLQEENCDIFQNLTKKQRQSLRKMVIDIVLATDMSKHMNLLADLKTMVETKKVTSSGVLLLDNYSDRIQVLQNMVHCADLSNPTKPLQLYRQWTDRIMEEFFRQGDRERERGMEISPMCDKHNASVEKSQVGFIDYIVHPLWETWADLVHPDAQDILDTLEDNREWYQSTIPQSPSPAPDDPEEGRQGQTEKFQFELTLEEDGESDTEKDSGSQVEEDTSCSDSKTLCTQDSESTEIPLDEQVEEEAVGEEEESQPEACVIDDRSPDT
Procedure: The PDE construct was transfected into Cos 7 cells in round culture dish (100×20 mm). The cells were then harvested and homogenized with lysis buffer. The crude homogenate was spun at maximum speed in a microfuge. The supernatant fluid was saved as an extract. […] The PDE construct and Cos 7 cells were a kind gift from Dr. Conti at the Stanford University School of Medicine.
(§1) PDE4 enzyme assays were carried out as described previously. Studies with recombinant PDE4 enzymes were carried out in the laboratory of Professor Marco Conti (Stanford University, Palo Alto, Calif.).

[3] = target: rodent PDE4; experiment: Inhibition of rodent PDE4 (rolipram binding sites); conditions: Table 4
Procedure: IC50 values for inhibitor interaction with this site were calculated by nonlinear regression analysis of competition curves for unlabeled PDE4 inhibitors; Ki values were determined according to the method of Cheng and Prusoff (1973). […] Competition curves for the PDE4 inhibitors were subjected to nonlinear regression analysis and IC50 values with which the inhibitors bind to each of the binding sites was determined; K1 values were determined according to the method of Cheng and Prusoff (1973).

[4] = Human liver microsome stability assay; type: in vitro ADME; conditions: for half-life at 40 μM: human, liver microsomes, pH 7.4, Table 16, read-out: HLM t1/2
Procedure: (§2) Microsomal incubations (final volume 0.25 mL) with the SSRIs, dual PDE4 inhibitor/SSRIs or PDE4 inhibitor was done with an HPLC assay as described above. Diluted stocks of either mouse, human or rat liver microsomes (0.5 mg of protein), […] potassium phosphate buffer (pH 7.4), 0.5 mM NADI)^+, 0.5 mM glucose-6-phosphate, 5 IU/mL glucose-6-phosphate dehydrogenase, 0.6 mM DETAPAC, and 3 mM MgC12 were combined and placed on ice. For a metabolic stability assay, either vehicle or 40 μM test compound was added and the incubation was initiated at 37° C. with constant shaking. After 0, 10, 25, 40 and 60 min, the incubations were stopped by the addition of 1 mL CH2Cl2/2-propanol (3:1, v:v). After thorough mixing, the organic layer was separated from the aqueous portion by centrifugation at 12,000×g. The organic material was evaporated with a stream of argon. The residue was dissolved in methanol (200 μL) and the sample was analyzed by HPLC.

[5] = target: T2, human PDE4A1 (Homo sapiens, UniProt P27815); experiment: Inhibition of cAMP hydrolysis by recombinant human PDE4A1; type: biochemical
T2 construct: made in house
T2 sequence (P27815 1-647 isoform P27815-4): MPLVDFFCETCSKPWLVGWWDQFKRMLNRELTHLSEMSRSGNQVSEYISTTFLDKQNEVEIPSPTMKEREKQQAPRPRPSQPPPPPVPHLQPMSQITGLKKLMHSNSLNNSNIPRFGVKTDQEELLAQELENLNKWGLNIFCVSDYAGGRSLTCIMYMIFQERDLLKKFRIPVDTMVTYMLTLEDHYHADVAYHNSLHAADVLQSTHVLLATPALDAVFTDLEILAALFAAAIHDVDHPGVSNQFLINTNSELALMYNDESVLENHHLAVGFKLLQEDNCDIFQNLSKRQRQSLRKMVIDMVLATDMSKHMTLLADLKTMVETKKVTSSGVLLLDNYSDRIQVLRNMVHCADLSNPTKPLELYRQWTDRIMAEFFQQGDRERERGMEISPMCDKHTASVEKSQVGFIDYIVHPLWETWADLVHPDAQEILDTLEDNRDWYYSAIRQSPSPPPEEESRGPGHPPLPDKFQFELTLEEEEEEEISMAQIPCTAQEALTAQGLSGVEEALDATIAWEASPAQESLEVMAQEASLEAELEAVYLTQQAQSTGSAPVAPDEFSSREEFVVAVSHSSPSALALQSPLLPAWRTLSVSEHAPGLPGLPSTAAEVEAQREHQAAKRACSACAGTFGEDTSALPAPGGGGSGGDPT
Procedure: as §1

[6] = system: ICR mice; experiment: Forced-swim test in ICR mice; type: in vivo, mouse
Procedure: Forty male ICR mice, weighed 26.2±0.3 g, were housed in a temperature-controlled room (22-23° C.) and maintained on a 12-hour on 12-hour off light cycle (lights on at 6:00 AM). Water and food were freely available in the home cages. […] Saline containing the same percentage of DMSO was used as vehicle. The lower doses were tested followed by the larger doses 1 week later, when the mice were again randomly divided into four groups as described above. The forced-swim test (FST) was carried out as described previously. Mice were given a swimming pretest session, once a day for two successive days. Twenty-four hours after the last session, mice were injected vehicle or the lower dose of each test compound by the i.p. route 30 min prior to the FST. One week later, administration of the larger dose of each of the test compounds was repeated. During the pretest and test sessions, each mouse was placed for 6 min in a plastic cylinder (45 cm high×20 cm diameter), which was filled to a depth of 28 cm with water (23±1° C.). The duration of immobility, which was defined as floating in an upright position without additional activity other than that necessary for the animal to keep its head above water, was recorded.

[7] = system: mice; experiment: Morris water maze test; type: in vivo, mouse; conditions: 3 mg/kg, compared to control mice
Procedure: Compounds 19 and 115 were tested in a Morris water maze test. The escape latency (time to climb onto a hidden platform) for each mouse was recorded as a memory test. […] Compared to a group of control mice, compound 19 and 115 caused a 30% improvement in memory at 3 mg/kg. […] This is not completely unexpected as SSRIs often require repeated dosing to see a large and significant effect. […] Multiple dosing likely will increase the efficacy of the compounds tested.

[8] = Mouse liver microsome stability assay; type: in vitro ADME
Procedure: A typical assay mixture contained either mouse or rat liver microsomes (0.5 mg of protein), […] potassium phosphate buffer (pH 7.4), 40 μM test compounds, 0.5 mM NADP+, 0.5 mM glucose-6-phosphate, 5 IU/mL glucose-6-phosphate dehydrogenase, 1 mg/mL diethylenetriaminepentaacetic acid (DETAPAC) and 5 mM MgCl2 in a final incubation volume of 0.1 mL. After 0, 10, 25, 40 and […], the incubations were stopped by the addition of 1 ml CH2Cl2/2-propanol (3:1 v:v). The mixture was centrifuged at 12,000×g for 1 min, and the organic layer was separated from the aqueous fraction. The organic fraction was evaporated with a stream of argon and the residue was taken up in methanol (200 μL) and injected into the HPLC system described above.
as §2

[9] = target: T3, human PDE4B3 (Homo sapiens, UniProt Q07343); experiment: Inhibition of cAMP hydrolysis by recombinant human PDE4B3; type: biochemical; conditions: Example 29
T3 construct: made in house
T3 sequence (Q07343 1-721 isoform Q07343-3): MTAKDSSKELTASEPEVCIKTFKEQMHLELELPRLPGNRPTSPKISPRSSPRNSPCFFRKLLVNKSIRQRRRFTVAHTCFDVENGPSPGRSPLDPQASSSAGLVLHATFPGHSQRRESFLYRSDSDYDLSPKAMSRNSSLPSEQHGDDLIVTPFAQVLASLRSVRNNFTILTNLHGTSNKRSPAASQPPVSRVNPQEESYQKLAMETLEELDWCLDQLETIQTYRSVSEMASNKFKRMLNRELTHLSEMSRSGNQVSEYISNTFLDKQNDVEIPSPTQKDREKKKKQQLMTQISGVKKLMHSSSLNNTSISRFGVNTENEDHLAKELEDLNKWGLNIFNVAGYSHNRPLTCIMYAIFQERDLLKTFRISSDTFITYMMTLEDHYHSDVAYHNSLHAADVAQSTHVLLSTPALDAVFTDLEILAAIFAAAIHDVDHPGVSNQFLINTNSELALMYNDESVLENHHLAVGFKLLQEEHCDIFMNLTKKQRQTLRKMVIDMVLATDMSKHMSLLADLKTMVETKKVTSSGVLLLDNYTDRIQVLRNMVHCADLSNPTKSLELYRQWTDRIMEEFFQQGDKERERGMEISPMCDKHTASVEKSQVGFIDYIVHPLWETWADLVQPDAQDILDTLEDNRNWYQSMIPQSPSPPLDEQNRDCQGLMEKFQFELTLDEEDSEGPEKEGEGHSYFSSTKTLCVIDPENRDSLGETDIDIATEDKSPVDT
Procedure: as §1

[10] = system: Swiss-Webster mice; experiment: animal or person; type: in vivo, mouse
Procedure: A time course/dose response study of cocaine-induced locomotor stimulation was conducted beginning Feb. 21, 2000, according to a locomotor activity studies time course protocol. […]. A panel of infrared beams (16 beams) and corresponding photodetectors were located in the horizontal direction along the sides of each activity chamber. A 7.5-W incandescent light above each chamber provided dim illumination. Fans provided an 80-dB ambient noise level within the chamber. […]. In all studies, horizontal activity (interruption of photocell beams) was measured for 8 hours within 10-min periods, beginning at 0800 hrs (2 hours after lights on). Testing was conducted with one mouse per activity chamber.
. Behavioral observations were recorded on each mouse at 30, 120 and 480 minutes following 100 mg/kg compound 31,646.

[11] = system: Balb/c mice; experiment: Forced-swim test in Balb/c mice; type: in vivo, mouse; conditions: for duration of immobility, forced-swim test, acute: i.p. 30 min prior, fluoxetine 20 mg/kg, test compounds 10 mg/kg
Procedure: The study was conducted according to a standard operation procedure and in accordance with all Federal regulations. Water and food were freely available in the home cages. […] Mice were given a swimming pretest session, once a day for two successive days. […] During the pretest and test sessions, each mouse was placed for […] in a plastic cylinder (45 cm high×20 cm diameter), which was filled to a depth of 28 cm with water (23±1° C.). The duration of immobility, which was defined as floating in an upright position without additional activity other than that necessary for the animal to keep its head above water, was recorded. For the subchronic administration tests, the animals were separated as above and vehicle or chemicals were given by i.p. administration 23, 5 and 1 hr before the FST. The subchronic experiments were done similar to the study described above except for the pretest training that was not carried out.
Mice in the first session were treated with vehicle or the drugs acutely, whereas mice in the second sessions were treated subchronically, i.e., vehicle or drugs were given i.p. 23, 5, and 1 hr before the FST. The experiment was performed similar to Experiment 1 except for the pretest training, which was not carried out in the second session.

[12] = Example 29, read-out: Ki, human PDE4D3
[13] = Example 29, read-out: Ki, human PDE4A1
[14] = Table 14, read-out: Human PDE4A1 Ki

2-(5-Bromo-pentyl)-4-(3,4-dimethoxy-phenyl-4a,5,8,8a-tetrahydro-2H-phthalazin-1-one [Compound 20]
transporter inhibition potency [1]: no transporter inhibition potency

COc1ccc(C2=NNC(=O)C3CC=CCC23)cc1OC (racemic) [Compound 19, 4-(3,4-Dimethoxy-phenyl)-4a,5,8,8a-tetrahydro-2H-phthalazin-1-one, reference compound]
Ki ([2]; Table 5, recombinant human PDE 4D3, read-out: Ki): 6.3 nM | pIC50 [3]: 6.7 | transporter inhibition potency [1]: no transporter inhibition potency

COc1ccc(C2=NNC(=O)[C@@H]3CC=CC[C@H]23)cc1OC (racemic) [Compound 19, 4-(3,4-Dimethoxy-phenyl)-4a,5,8,8a-tetrahydro-2H-phthalazin-1-one, reference compound]
PDE4A1/PDE4D3 inhibitory selectivity ratio [2]: < 159 fold | PDE4B3/PDE4D3 inhibitory selectivity ratio [2]: 40 fold | Ki [2, 12]: 6.3 nM | half-life at 40 μM [4]: > 60 min | Ki [5, 13]: > 1000 nM | Ki [5, 14]: < 1000 nM | immobility, forced-swim test, acute, higher dose ([6]; 3 mg/kg i.p., vs vehicle, P<0.05): significantly reduced immobility | duration of immobility, forced-swim test, acute ([6]; 0.3 and 3 mg/kg i.p.): decreased duration of immobility in a dose-dependent manner | improvement in memory (escape latency) [7]: 30% | half life, mouse liver microsomes ([8]; NADPH): 211 min | MLM t1/2 ([8]; Table 16): 211.3 min | effect on RTI-55 binding or reuptake at any transporter ([1]; hDAT, hSERT, hNET): essentially no measurable effect | Ki [9]: 250 nM

COC(=O)[C@H]1[C@@H](OC(=O)c2ccccc2)C[C@@H]2CC[C@H]1N2C [Cocaine, reference compound]
onset of stimulant effects after injection ([10]; 10 and 20 mg/kg): ≤ 10 min | ED50 ([10]; Mus musculus, IP, 0-30 min, read-out: ED50 (dose producing 1/2 maximal stimulant activity)): 5.8 mg/kg | dose at maximum horizontal activity ([10]; estimated from fitted curve): 23.4 mg/kg | maximum horizontal activity ([10]; estimated from fitted curve, 0-30 min): 5520 counts/10 min

COc1ccc(F)cc1CCC1CCC(CCN)O1 (stereo not drawn) [Compound 14, 2-Aminoethyl-5-(2′-methoxy-5′-fluorophenethyl)tetrahydrofuran]
immobility, forced-swim test, acute ([6]; 10 and 30 mg/kg i.p.): tended to decrease immobility, but it was not statistically significant | immobility, forced-swim test, subchronic ([11]; i.p. 23, 5 and 1 hr prior, fluoxetine 10 mg/kg, 18k/l or 14 10 mg/kg, 21 1 mg/kg): did not change immobility | duration of immobility, forced-swim test, acute [11]: did not markedly alter the duration of immobility | half life, mouse liver microsomes ([8]; NADPH): 56 min | MLM t1/2 ([8]; Table 16): 56.0 min

COc1ccc(F)cc1CCCC1CCC(CCN)O1 (stereo not drawn) [Compound 15, 2-Aminoethyl-5-(3′-(2″-methoxy-5″-fluorophenyl)-1′-propyl)tetrahydrofuran]
duration of immobility, forced-swim test, acute [11]: did not markedly alter the duration of immobility

COc1ccc(F)c(CCCC2CCC(CCNCCCCCN3N=C(c4ccc(OC)c(OC)c4)C4CC=CC[C@H]4C3=O)O2)c1 (stereo partly drawn) [Compound 22]
Ki [2, 12]: 1.2 nM | metabolism in human liver microsomes ([4]; NADPH, up to 60 min): No detectable metabolic instability | half-life at 40 μM [4]: > 60 min | Ki [5, 13]: > 1000 nM | Ki [5, 14]: < 1000 nM | pIC50 [3]: 6.3 | metabolism in mouse liver microsomes ([8]; NADPH, up to 60 min): No detectable metabolic instability | half-life at 40 μM ([8]; mouse, liver microsomes, pH 7.4, Table 16, read-out: MLM t1/2): > 60 min | Ki [9]: 500 nM

NCCC1CCC(CCc2ccccc2)O1 (stereo not drawn) [Compound 54, 2-(Aminoethyl)-5-(phenethyl)tetrahydrofuran]
other behavioral observations ([10]; 100 mg/kg, 30, 120 and 480 minutes): No unusual effects were observed | onset of depressant effects after injection ([10]; 30 and 100 mg/kg): ≤ 10 min | ID50 (dose producing 1/2 maximal depressant activity) ([10]; IP, 0-30 min after injection): 39.8 mg/kg | CNS stimulation ([10]; mouse, in vivo): did not cause CNS stimulation

COc1ccc(F)cc1CCC1CCC(CCNCCCCCN2N=C(c3ccc(OC)c(OC)c3)C3CC=CC[C@H]3C2=O)O1 (stereo partly drawn) [Compound 115]
improvement in memory (escape latency) [7]: 30%

COc1ccc(C2CNC(=O)C2)cc1OC1CCCC1 (stereo not drawn) [Rolipram, reference compound]
forced-swim test behavior, acute ([6]; 0.5 mg/kg): did not alter FST behavior
